pIC50: −log10 of the molar value.
Target: Aldo-keto reductase family 1 member B1 (Rattus norvegicus, UniProt P07943)
Test: Inhibition of aldose reductase in rat lens homogenates by fluorophotometer

Structure (SMILES) | pIC50
CC(=O)O[C@H]1[C@H](Oc2c(-c3ccc(O)c(O)c3)oc3cc(O)cc(=O)c-3c2O)O[C@H](CO[C@@H]2O[C@@H](C)[C@H](O)[C@@H](O)[C@H]2O)[C@@H](O)[C@@H]1O [3-O-alpha-L-rhamnopyranosyl(1->6)-2''-O-acetyl-beta-D-glucopyranoside] | 4.74
C[C@@H]1O[C@@H](O[C@H]2[C@H](Oc3c(-c4ccc(O)c(O)c4)oc4cc(O)cc(=O)c-4c3O)O[C@H](CO)[C@H](O)[C@@H]2O)[C@H](O)[C@H](O)[C@H]1O [quercetin 3-O-neohesperidoside] | 4.74

— BindingDB's records for doi:10.1021/np020058m (Kyoto Pharmaceutical University, 2002)
